According to ChEMBL document CHEMBL4130624, “Optimization of 1,4-Oxazine β-Secretase 1 (BACE1) Inhibitors Toward a Clinical Candidate” (J Med Chem, 2018):

Columns and labels:
[1] = Clearance in Swiss mouse at 2.5 mg/kg, iv administered as bolus dose by LC-MS/MS analysis; assay type: ADME, organism-based; conditions: in vivo
[2] = Ratio of fEC50 for antialzheimer activity in po dosed Beagle dog assessed as reduction in amyloid beta (1 to 40) levels to Inhibition of BACE1 (1 to 454 residues) (unknown origin); assay type: functional
Salmonella typhimurium = assay: Mutagenicity in Salmonella typhimurium TA98 up to 500 ug/ml in absence of rat liver S9 fraction by Ames 2 assay; assay type: toxicity, organism-based; conditions: salmonella enterica subsp. enterica serovar typhimurium
Beta-secretase 1 = Beta-secretase 1 (Homo sapiens, UniProt P56817); assay: Inhibition of BACE1 (1 to 454 residues) (unknown origin) using APP derived polypeptide harboring Lys-Met/Asn-Leu mutation as substrate by FRET assay
[3] = Oral bioavailability in Sprague-Dawley rat at 10 mg/kg administered as bolus dose by LC-MS/MS analysis; assay type: ADME, organism-based; conditions: in vivo
Cavia porcellus = assay: Cardiotoxicity in anesthetized guinea pigs assessed as QTcB prolongation at plasma concentration of 11500 ng/ml dosed up to 10 mg/kg, iv administered over a period of 5 min at 15 min interval by ECG analysis (reference value: 7%); assay type: toxicity, organism-based; conditions: guinea pig, in vivo
[4] = AUC (0 to 24 hrs) in female Beagle dog at 70 mg/kg, po measured after 1 month repeated dosing by LC-MS/MS analysis; conditions: in vivo

Chain of Beta-secretase 1 (P56817 whole entry, the tested form may be a part): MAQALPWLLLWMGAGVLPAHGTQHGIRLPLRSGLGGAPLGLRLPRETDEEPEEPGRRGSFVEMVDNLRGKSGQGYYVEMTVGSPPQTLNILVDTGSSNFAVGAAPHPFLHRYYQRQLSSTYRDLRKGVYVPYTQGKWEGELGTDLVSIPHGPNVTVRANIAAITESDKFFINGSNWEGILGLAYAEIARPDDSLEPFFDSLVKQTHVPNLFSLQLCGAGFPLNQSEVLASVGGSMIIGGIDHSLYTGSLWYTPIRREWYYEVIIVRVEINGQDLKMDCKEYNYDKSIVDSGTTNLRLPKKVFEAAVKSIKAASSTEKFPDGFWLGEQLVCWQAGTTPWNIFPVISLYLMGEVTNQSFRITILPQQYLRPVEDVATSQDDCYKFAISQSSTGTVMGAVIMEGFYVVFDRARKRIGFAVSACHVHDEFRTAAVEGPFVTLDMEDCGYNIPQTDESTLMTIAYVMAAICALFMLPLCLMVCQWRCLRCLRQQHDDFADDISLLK

C[C@]1(c2cc(NC(=O)c3ccc(C#N)cn3)ccc2F)N=C(N)CO[C@H]1C(F)(F)F
clearance [1]: 69 mL/min/kg
Ratio [2]: 3
Activity (Salmonella typhimurium): Non-Toxic
IC50 (Beta-secretase 1): 22.2 nM
bioavailability [3]: 36%
Activity (Cavia porcellus): 9%
AUC at 24 h [4]: 23100 ng·h/mL
